Results published in US5436273A, “Psychoactive propargylamine derivatives used in the treatment of anxiety, psychotic states or aggression” (Lowchol Scientific, Inc., priority 1993, dated 1995).
Entries after “also recorded” stand apart in the source; their conditions may differ. Read-outs that look alike come from different tables or passages of the source.

Legend:
[1] = test system: conditioned avoidance response in rats; assay: Inhibition of conditioned avoidance response in rats; assay type: in vivo, Sprague Dawley rats
Excerpt: 6. Inhibition of Conditioned Avoidance Response in Rats
Male Sprague Dawley rats (200-250 g) are trained to avoid an electric foot shock, by continuously changing room with the appropriate visuals and auditory signals, in an automatic 2-way conditioned avoidance apparatus (Coulbourn Instrument Co.). Only the animals that perform at least a 70% avoidance (3 successive training sessions) are kept for the experiment.
The day of the experiment, the selected animals are submitted to a pre-treatment control session. The compound to be studied is then administered i.p. and the animals are placed back in the apparatus for evaluation 30 minutes later. Diazepam was used as a standard.

[2] = Effect on body temperature in mice; assay type: in vivo, CD #1 mice; conditions: for Temp. Difference from Control: one hour
Protocol: 9. Effect on Body Temperature in Mice
Female CD #1 mice (20-30 g) are used. Rectal temperature is recorded before and one hour after s.c. administration of the compound to be studied (N=8/doses×4 doses). The solvent used is sterile water for intravenous injection.
The results which are reported in Table 9 are expressed in terms of the variation of temperature for different doses. Buspirone was tested on Sprague Dawley rats.

[3] = test system: aggressive behavior in combative mice; assay: Inhibition of aggressive behavior in combative mice at various times (correlation with plasma concentration); assay type: in vivo; conditions: 10 mg/kg i.p.; for inhibition at 10 mg/kg: Mus musculus, ip
Protocol: (§1) The mice are placed together, in pairs, for 5 minutes. This pairing is performed 10, 25, 55, 85 and 115 minutes after the administration of compound N^o 3. One minute after each of the 5 minute periods of placing the animals together, three pairs of animals are anesthetized with ether and guillotined in order to determine the concentration of compound N^o 3 in the plasma. The plasma sample is prepared by centrifugation (16,000 G) of 800 μl of blood to which 50 μl of EDTA Na4 (0.1M) is added. The inhibition of aggressive behavior at the different times in which the animals are placed together and the number of pairs evaluated is shown in the following Table: […]

[4] = test system: spontaneous motor activity in rats; assay: Inhibition of spontaneous motor activity in rats; assay type: in vivo, Sprague Dawley rats; conditions: for ED50: Rattus norvegicus, ip, 0.5 h, i.p., 30 minutes
Protocol: (§2) Two animals are studied simultaneously, one treated and one control. After a 2 hour period of acclimatization to the room, a first activity count of 10 minutes duration is perfomed. The compound to be studied is then administered i.p. and the spontaneous activity is reevaluated 30 minutes later over a period of 10 minutes.
5. Inhibition of Spontaneous Motor Activity in Rats
The method is the same as described above for mice, except that because of the size of the animals (Sprague Dawley rats; 300 g), the test and control animals are not evaluated simultaneously, but alternatively.

[5] = Plasma concentration in combative mice as a function of time; assay type: in vivo; conditions: 10 mg/kg i.p.
Protocol: A calibration curve is established using mouse blood plasma. Two samples are used for each concentration. The method used is as follows.
200 μl of plasma are taken and denaturated with 400 μl of acetonitrile. 500 μl of the clear liquid is taken.
A derivative is made with 50 μl of orthophthalaldehyde (0.05M) in a test tube and 25 μl of the solution is injected into a high performance liquid chromatography apparatus after 30 minutes.
3-Amino-4-pentyne is used as standard.
The following equation describes the calibration curve: […]
The concentration of compound N^o 3 in the plasma is given by the following equation: [formula] B. Evaluation in Vivo
The pharmacokinetic profile is established in combative mice.
as §1

[6] = test system: aggressive behavior of combative mice; assay: Persistence of antiaggressive effect; assay type: in vivo; conditions: 10 mg/kg i.p. daily for five days, FIG. 3
Excerpt: 12. Persistence of Antiaggressive Effect

[7] = test system: aggressive behavior of combative mice; assay: Duration of antiaggressive effect; assay type: in vivo; conditions: single dose 10 mg/kg i.p., FIG. 2
Excerpt: 11. Duration of Antiaggressive Effect

[8] = test system: righting reflex / ethanol narcosis in mice; assay: Potentiation of sleeping time induced by ethanol in mice; assay type: in vivo, CD #1 mice; conditions: for percentage of animals displaying a loss of the righting reflex: with ethanol
Protocol: 7. Potentiation of Sleeping Time Induced by Ethanol in Mice
This test was done with male CD #1 mice of 25-35 g. The mice are injected intraperitoneally (8 mice per dose). A subhypnotic dose of ethanol (12 ml/kg of 50% ethanol solution) is administered orally 30 minutes later.
The loss of the righting reflex is evaluated, for each animal, 30 minutes after the administration of the alcohol. It is considered that there is a potentialization of ethanol narcosis if the righting time exceeded 30 seconds.
The results which are reported in Table 7 are expressed in terms of the percentage of animals displaying a loss of the righting reflex versus the administered dose. Chlorpromazine (5 mg/kg i.p.) is used as a standard.

Acute toxicity test = conditions: mouse, in vivo, ip
Protocol: CD #1 mice (20-30 g) are used for this test. The animals are individualy housed in glass beakers for a 2 hour period of acclimatization without food and water.

[9] = test system: spontaneous motor activity in mice; assay: Inhibition of spontaneous motor activity in mice; assay type: in vivo, CD #1 mice; conditions: for ED50: Mus musculus, ip, 0.5 h, i.p., 30 minutes
Protocol: 4. Inhibition of Spontaneous Motor Activity in Mice
Female CD #1 mice (20-30 g) are used for this experiment. The effect of the compound to be studied on spontaneous activity was evaluated by an automated […] XYZ system. This system allows the simultaneous quantification of the following parameters:
number of stereotypic movements;
number of vertical movements;
number of clockwise revolutions; and
number of counterclockwise revolutions.
as §2

[10] = Vapor pressure at room temperature; assay type: physicochemical; conditions: free base
[11] = read-out: ED50, clockwise revolutions
[12] = read-out: ED50, counterclockwise revolutions
[13] = read-out: ED50, horizontal activity
[14] = read-out: ED50, number of movements
[15] = read-out: ED50, number of stereotypic movements
[16] = read-out: ED50, stereotypy time

In the case of `C#CC(C)N` (centres unmarked) [Compound 3, 2-Amino-3-butyne], the “conditioned avoidance response, first exposure” value ([1]; 10 mg/kg i.p., first exposure) is reported as 3%, the “conditioned avoidance response, re-exposed” value ([1]; 10 mg/kg i.p., re-exposed) is reported as 29% and the ED50 ([1]; Rattus norvegicus, ip, 0.5 h, calculated with repeated exposure, r^2 = 0.43) is reported as 21.5 ± 11.2 mg/kg. The “inhibition of conditioned avoidance response (in words)” value ([1]; rats) was “very active at first; also recorded: much less active if re-; also recorded: inhibit conditioned avoidance in rats, but are less active than diazepam; also recorded: loss of activity in the case of compound N^o 3 after the first exposure to the drug; also recorded: does not seem to impair the animal's sensory discrimination at doses 2 to 3 times above that which produces a quieting effect with repeated exposure”, the “Temp. Difference from Control” value ([2]; dose 10, s.c.) was -2.6 and the “Temp. Difference from Control” value ([2]; dose 30, s.c.) was -2.5. The “Temp. Difference from Control” value ([2]; dose 100, s.c.) was -4.1, the “hypothermia (in words)” value ([2]; s.c.) was “slight, transient hypothermia comparable to that induced by buspirone” and the “antiaggressive activity over time (in words)” value [3] was “noticeable activity after a few minutes; also recorded: activity is maximal when the plasma concentration is no longer detectable”. The “time of maximum antiaggressive activity” value [3] was 60 min, the inhibition at 10 mg/kg ([3]; 0.5 h, 30 min, 12 pairs) was 87.5% and the inhibition at 10 mg/kg ([3]; 1 h, 60 min, 9 pairs) was 100%. It also gave an inhibition at 10 mg/kg ([3]; 1.5 h, 90 min, 3 pairs) of 100%, an inhibition at 10 mg/kg ([3]; 2 h, 120 min, 3 pairs) of 100% and an inhibition at 10 mg/kg ([3]; 15 min, 15 pairs) of 75%. The “inhibition of spontaneous motor activity (in words)” value [4] was “of comparable activity in rats”, the ED50 [4, 11] was 4.1 ± 1.4 mg/kg and the ED50 [4, 12] was 3.7 ± 1.7 mg/kg. The ED50 [4, 13] was 4.2 ± 1.8 mg/kg, the ED50 ([4]; read-out: ED50, movement time) was 5.5 ± 2.3 mg/kg and the ED50 [4, 14] was 11.8 ± 7.9 mg/kg. The ED50 [4, 15] was 5.2 ± 2.4 mg/kg, the ED50 [4, 16] was 4.2 ± 1.7 mg/kg and the ED50 ([4]; read-out: ED50, total distance) was 4.9 ± 2 mg/kg. The “elimination / plasma level (in words)” value ([5]; FIG. 1) was “elimination of compound N^o 3 is very rapid; also recorded: not detectable, by the method used, 90 minutes after the injection”, the concentration at […] ([5]; mouse, plasma, ip, 15 min, N = 6, read-out: plasma concentration ± S.E.) was 4800 ± 400 µM and the concentration at 0.5 h ([5]; mouse, plasma, ip, 30 min, N = 6, read-out: plasma concentration ± S.E.) was 2000 ± 200 µM. It also gave a concentration at 1 h ([5]; mouse, plasma, ip, 60 min, N = 5, read-out: plasma concentration ± S.E.) of 900 ± 200 µM, a concentration at 1.5 h ([5]; mouse, plasma, ip, 90 min, N = 6, read-out: plasma concentration ± S.E.) of under 5 µM and a concentration at 2 h ([5]; mouse, plasma, ip, 120 min, N = 6, read-out: plasma concentration ± S.E.) of under 5 µM. The “persistence of inhibitory effect on aggressive behavior (in words)” value [6] was “also persists when the compound is administered on a daily basis”, the “duration of inhibitory effect on aggressive behavior” value [7] was “approximately 4 hours” and the “percentage of animals displaying a loss of the righting reflex” value ([8]; 10 mg/kg i.p.) was 50%. The “percentage of animals displaying a loss of the righting reflex” value ([8]; 30 mg/kg i.p.) was 50%, the “percentage of animals displaying a loss of the righting reflex” value ([8]; 100 mg/kg i.p.) was 25% and the “potentiation of ethanol (in words)” value ([8]; subhypnotic dose of ethanol, mice) was “active at t = 30 min; also recorded: potentiate the effect of a subhypnotic effect dose of ethanol”. For the same compound, the LD50 (Acute toxicity test) was 1370 mg/kg, the “inhibition of spontaneous motor activity (in words)” value [9] was “more active than buspirone in mice” and the ED50 [9, 11] was 3.3 ± 1.6 mg/kg. The ED50 [9, 12] was 2.7 ± 1.9 mg/kg, the ED50 [9, 13] was 4.3 ± 2.2 mg/kg and the ED50 ([9]; read-out: ED50, movement time) was 8.1 ± 4.5 mg/kg. It also gave an ED50 [9, 14] of 11.8 ± 5.9 mg/kg, an ED50 [9, 15] of 5.5 ± 2.2 mg/kg and an ED50 [9, 16] of 3.8 ± 1.6 mg/kg. For the same compound, the ED50 ([9]; read-out: ED50, total distance) was 5.5 ± 3.4 mg/kg, the ED50 ([9]; read-out: ED50, vertical activity) was 2.5 ± 1.2 mg/kg and the ED50 ([9]; read-out: ED50, vertical movements) was 3.2 ± 1.6 mg/kg. For the same compound, the ED50 ([9]; read-out: ED50, vertical time) was 2.6 ± 1.5 mg/kg and the “vapor pressure (in words)” value [10] was “high vapor pressure at room temperature”.
